How the values were obtained:
[1] = target: T1, Myosin light chain kinase (Homo sapiens) (UniProt Q32MK0); assay: Selectivity interaction (KinomeScan (DiscoverX)) EUB0000229b MYLK3; settings: at 10 µM
T1 sequence (whole entry): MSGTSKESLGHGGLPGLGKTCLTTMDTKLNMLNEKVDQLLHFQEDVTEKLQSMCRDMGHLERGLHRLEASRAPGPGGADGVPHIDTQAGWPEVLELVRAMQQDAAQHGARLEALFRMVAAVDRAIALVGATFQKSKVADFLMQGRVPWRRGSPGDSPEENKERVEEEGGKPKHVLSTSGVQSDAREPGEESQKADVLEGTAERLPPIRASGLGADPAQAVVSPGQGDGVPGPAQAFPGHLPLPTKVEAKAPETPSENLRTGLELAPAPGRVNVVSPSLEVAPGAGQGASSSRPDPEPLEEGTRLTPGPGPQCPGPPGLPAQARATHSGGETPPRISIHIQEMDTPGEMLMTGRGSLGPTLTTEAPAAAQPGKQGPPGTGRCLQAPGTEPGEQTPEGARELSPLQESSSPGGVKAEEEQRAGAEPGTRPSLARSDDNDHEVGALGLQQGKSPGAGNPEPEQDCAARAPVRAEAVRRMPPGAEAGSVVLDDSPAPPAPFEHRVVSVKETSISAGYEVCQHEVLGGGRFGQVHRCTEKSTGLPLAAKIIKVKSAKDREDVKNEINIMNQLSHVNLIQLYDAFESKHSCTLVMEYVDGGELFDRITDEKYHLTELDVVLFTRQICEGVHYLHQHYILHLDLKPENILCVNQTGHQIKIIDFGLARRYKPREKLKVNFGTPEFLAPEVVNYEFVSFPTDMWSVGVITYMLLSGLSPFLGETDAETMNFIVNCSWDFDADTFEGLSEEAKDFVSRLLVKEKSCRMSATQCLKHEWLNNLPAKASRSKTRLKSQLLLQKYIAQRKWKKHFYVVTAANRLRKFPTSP

[2] = target: Interferon-induced, double-stranded RNA-activated protein kinase (Homo sapiens) (UniProt P19525); assay: Selectivity interaction (KinomeScan (DiscoverX)) EUB0000655a EIF2AK2; settings: at 10 µM
Sequence of Interferon-induced, double-stranded RNA-activated protein kinase (Homo sapiens) (P19525 whole entry): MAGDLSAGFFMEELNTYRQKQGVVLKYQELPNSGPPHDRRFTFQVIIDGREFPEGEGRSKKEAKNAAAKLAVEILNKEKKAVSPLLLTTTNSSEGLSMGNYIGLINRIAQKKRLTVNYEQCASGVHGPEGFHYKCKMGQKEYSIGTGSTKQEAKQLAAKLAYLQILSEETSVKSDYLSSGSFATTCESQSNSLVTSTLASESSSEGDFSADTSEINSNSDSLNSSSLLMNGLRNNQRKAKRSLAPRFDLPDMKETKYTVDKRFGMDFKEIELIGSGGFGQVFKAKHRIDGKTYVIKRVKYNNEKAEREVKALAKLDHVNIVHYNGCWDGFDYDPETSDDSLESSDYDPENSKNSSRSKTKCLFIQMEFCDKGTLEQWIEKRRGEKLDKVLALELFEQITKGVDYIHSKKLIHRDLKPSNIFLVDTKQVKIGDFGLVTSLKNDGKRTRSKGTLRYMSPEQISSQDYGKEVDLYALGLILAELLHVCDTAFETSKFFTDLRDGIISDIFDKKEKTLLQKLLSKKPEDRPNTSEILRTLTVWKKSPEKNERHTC

[3] = target: Serine/threonine-protein kinase 32C (Homo sapiens) (UniProt Q86UX6); settings: at 10 µM
Sequence of Serine/threonine-protein kinase 32C (Homo sapiens) (Q86UX6 whole entry): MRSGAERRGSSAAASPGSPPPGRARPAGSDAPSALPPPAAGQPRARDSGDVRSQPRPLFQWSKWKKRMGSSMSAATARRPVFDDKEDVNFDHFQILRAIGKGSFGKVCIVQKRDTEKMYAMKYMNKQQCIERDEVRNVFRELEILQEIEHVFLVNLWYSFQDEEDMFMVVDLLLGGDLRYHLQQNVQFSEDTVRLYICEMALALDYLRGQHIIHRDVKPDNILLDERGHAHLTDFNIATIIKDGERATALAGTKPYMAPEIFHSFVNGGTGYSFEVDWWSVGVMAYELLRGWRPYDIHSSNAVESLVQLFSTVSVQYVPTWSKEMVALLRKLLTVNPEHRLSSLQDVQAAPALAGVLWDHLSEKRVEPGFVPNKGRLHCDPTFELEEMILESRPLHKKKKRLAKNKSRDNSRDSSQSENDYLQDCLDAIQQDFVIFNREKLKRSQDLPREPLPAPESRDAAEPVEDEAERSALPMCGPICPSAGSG

[4] = target: Protein kinase C beta type (Homo sapiens, UniProt P05771); assay: Selectivity interaction (Kinase panel (Z-LYTE Assay)) EUB0001632a PRKCB; settings: at 10 µM
Sequence of Protein kinase C beta type (P05771 2-671 limits assumed): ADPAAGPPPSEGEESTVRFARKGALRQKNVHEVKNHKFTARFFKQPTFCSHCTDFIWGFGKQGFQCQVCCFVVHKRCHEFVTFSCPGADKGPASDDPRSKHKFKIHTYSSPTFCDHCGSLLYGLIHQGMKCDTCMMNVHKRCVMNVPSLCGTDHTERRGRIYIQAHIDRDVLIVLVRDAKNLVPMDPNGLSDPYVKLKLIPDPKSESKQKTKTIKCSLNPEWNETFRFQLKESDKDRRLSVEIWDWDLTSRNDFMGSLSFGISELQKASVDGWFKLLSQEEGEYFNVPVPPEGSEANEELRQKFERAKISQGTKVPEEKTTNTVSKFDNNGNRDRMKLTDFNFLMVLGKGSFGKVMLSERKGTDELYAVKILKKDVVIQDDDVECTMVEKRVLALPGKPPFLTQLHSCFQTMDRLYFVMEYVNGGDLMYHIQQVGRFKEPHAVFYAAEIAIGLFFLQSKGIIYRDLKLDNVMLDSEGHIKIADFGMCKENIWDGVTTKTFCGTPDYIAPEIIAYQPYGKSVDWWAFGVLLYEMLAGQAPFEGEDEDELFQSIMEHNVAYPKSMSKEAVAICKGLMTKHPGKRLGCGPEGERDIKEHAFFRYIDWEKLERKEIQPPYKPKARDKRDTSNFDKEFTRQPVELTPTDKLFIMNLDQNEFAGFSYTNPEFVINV

[5] = target: Casein kinase I isoform alpha (Homo sapiens, UniProt P48729); assay: Selectivity interaction (Kinase panel (Z-LYTE Assay)) EUB0001632a CSNK1A1; settings: at 10 µM
Sequence of Casein kinase I isoform alpha (P48729 2-337 limits assumed): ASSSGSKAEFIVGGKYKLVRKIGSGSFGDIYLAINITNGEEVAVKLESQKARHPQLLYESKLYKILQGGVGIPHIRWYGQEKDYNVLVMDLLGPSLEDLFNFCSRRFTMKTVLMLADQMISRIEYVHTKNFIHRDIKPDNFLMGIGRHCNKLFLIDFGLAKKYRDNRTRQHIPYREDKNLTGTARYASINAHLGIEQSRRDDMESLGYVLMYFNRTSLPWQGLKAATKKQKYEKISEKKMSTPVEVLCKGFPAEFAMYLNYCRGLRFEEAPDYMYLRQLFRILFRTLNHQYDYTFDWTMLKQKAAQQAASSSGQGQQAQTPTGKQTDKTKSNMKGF

[6] = target: Calcium/calmodulin-dependent protein kinase type 1D (Homo sapiens) (UniProt Q8IU85); assay: Selectivity interaction (ActivX KiNativ screen (kinase selectivity in THP-1 cell lysates)) EUB0000639a CAMK1D; format: subcellular; settings: lysate, at 0.2 µM
Sequence of Calcium/calmodulin-dependent protein kinase type 1D (Homo sapiens) (Q8IU85 whole entry, looked up): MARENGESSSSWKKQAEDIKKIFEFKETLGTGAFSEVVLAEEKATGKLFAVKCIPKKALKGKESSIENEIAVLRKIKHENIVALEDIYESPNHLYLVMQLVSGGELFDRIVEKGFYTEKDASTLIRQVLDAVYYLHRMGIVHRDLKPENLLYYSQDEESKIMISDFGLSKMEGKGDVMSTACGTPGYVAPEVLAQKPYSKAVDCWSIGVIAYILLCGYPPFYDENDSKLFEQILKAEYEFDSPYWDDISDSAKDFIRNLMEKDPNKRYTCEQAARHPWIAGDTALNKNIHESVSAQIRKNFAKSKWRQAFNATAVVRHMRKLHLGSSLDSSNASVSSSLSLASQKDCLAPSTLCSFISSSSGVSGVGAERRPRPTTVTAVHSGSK

[7] = target: T2, Serine/threonine-protein kinase 3 (Homo sapiens) (UniProt Q13188); assay: Selectivity interaction (ActivX KiNativ screen (kinase selectivity in THP-1 cell lysates)) EUB0000639a STK3; format: subcellular; settings: lysate, at 1 µM
T2 sequence (whole entry): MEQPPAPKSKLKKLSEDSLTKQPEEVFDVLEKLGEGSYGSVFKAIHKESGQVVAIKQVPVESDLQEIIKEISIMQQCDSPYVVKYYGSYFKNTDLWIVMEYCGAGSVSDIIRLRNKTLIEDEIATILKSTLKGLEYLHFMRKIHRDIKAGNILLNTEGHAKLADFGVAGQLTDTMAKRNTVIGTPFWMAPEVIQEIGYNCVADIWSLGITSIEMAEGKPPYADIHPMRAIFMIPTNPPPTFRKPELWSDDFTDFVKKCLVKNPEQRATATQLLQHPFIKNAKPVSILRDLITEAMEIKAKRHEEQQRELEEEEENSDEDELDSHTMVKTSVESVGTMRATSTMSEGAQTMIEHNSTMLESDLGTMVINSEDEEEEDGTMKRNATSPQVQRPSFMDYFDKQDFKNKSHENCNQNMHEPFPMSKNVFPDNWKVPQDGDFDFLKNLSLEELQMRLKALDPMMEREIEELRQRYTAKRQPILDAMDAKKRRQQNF

[8] = target: Cyclin-dependent kinase 16 (Homo sapiens) (UniProt Q00536); assay: Selectivity interaction (KinomeScan (DiscoverX)) EUB0000695a CDK16; settings: at 100 nM
Sequence of Cyclin-dependent kinase 16 (Homo sapiens) (Q00536 whole entry): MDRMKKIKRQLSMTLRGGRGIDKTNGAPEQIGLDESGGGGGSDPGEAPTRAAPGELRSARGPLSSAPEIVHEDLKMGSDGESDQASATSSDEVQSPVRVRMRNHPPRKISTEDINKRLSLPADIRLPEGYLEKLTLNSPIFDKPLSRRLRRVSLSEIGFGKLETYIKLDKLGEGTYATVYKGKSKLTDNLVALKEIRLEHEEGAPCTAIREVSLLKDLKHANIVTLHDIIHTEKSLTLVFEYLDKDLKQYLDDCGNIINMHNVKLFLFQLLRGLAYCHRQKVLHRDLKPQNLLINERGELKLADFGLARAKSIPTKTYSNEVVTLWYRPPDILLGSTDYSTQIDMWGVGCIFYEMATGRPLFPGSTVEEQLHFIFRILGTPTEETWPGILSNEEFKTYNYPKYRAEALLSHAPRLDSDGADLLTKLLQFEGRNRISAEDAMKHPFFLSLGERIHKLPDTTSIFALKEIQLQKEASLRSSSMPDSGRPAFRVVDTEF

[9] = target: Citron Rho-interacting kinase (Homo sapiens) (UniProt O14578); assay: Selectivity interaction (KinomeScan (DiscoverX)) EUB0000595a CIT; settings: at 10 µM
Sequence of Citron Rho-interacting kinase (Homo sapiens) (O14578 whole entry): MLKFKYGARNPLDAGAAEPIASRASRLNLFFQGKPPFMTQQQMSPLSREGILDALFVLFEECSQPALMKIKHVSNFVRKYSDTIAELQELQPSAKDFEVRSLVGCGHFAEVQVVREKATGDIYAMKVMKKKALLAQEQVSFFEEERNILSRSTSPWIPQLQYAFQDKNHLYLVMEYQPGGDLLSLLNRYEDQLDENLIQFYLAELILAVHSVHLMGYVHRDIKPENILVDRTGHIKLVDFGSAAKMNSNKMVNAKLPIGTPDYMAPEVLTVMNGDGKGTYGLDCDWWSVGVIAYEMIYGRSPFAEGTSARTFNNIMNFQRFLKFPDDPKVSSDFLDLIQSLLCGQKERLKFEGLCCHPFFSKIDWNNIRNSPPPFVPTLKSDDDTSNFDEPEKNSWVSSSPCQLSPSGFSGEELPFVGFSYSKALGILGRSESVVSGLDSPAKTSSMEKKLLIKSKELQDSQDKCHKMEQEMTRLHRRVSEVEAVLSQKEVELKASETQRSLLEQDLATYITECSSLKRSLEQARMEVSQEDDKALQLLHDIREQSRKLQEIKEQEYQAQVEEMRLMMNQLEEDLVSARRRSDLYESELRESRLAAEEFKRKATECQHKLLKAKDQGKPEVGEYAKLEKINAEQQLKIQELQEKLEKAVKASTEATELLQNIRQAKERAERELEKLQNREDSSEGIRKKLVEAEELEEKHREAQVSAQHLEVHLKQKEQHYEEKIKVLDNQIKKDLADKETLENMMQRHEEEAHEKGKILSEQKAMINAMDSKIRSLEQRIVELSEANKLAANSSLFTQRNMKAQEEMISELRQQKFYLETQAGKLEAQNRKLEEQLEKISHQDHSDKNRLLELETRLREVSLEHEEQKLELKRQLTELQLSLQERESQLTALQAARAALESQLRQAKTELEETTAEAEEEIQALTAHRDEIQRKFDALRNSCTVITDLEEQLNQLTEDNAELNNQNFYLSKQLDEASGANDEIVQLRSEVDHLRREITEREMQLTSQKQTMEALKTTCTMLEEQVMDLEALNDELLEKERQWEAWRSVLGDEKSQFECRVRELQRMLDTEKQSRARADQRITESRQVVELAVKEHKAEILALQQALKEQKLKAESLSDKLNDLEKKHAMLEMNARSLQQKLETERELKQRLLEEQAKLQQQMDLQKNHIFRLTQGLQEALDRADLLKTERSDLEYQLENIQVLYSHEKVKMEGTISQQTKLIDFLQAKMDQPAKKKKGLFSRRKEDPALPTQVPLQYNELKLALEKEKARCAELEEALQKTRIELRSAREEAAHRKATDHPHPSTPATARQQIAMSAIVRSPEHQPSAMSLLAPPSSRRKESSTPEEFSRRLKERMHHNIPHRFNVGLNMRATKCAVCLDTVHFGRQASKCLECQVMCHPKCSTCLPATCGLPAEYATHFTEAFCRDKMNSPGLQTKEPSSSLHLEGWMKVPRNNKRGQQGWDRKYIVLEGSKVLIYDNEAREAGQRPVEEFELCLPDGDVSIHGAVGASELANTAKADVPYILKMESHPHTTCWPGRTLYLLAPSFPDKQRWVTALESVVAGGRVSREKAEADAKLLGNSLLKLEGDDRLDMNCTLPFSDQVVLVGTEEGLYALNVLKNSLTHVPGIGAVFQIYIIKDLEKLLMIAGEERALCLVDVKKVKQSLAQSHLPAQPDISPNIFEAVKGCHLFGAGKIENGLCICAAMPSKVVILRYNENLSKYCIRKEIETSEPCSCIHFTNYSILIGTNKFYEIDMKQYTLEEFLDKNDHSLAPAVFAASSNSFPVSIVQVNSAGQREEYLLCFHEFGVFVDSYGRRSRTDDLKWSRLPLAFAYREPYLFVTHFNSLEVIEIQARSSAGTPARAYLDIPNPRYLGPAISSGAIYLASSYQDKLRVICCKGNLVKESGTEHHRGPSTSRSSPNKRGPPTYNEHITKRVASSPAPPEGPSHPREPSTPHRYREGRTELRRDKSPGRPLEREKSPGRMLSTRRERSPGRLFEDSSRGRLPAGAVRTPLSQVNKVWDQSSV

[10] = target: T3, Mitogen-activated protein kinase 12 (Homo sapiens) (UniProt P53778); assay: Selectivity interaction (Kinase screening (Upstate/Millipore)) EUB0000604a MAPK12
T3 sequence (whole entry): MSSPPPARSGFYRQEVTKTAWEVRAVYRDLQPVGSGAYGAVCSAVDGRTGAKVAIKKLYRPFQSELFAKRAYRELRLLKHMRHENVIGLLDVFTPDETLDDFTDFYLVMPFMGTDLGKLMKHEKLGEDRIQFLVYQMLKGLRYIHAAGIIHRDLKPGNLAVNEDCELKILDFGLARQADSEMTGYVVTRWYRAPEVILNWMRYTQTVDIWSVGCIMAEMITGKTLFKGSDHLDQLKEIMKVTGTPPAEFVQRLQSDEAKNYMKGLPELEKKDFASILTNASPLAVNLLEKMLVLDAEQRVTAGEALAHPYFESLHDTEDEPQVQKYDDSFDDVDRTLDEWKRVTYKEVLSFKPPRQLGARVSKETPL

## COc1cc(N(C)c2ccnc3ccc(C(F)(F)F)cc23)cc(OC)c1OC
[1]
  % binding: 100%

## CN(C)CCOc1ccc(-c2nc(-c3ccncc3)c(-c3ccc4c(c3)CC/C4=N\O)[nH]2)cc1
[2]
  % of control: 61%

## Cc1cc([C@@H](C)Nc2ccccc2C(=O)O)c2nc(N3CCOCC3)cc(=O)n2c1 [AZD-6482]
[3]
  % of control: 82%

## Cn1cc(-n2cnc3c(NCc4nc5cc(Cl)c(Cl)cc5[nH]4)nc(N4CCOCC4)nc32)cn1
[4]
  % of control: 45.9%
[5]
  % of control: 4.57%

## CC[C@@H]1[C@H](F)C(=O)N[C@@H]1COc1nccc2cc(C(N)=O)c(OC)cc12 [ZIMLOVISERTIB]
[6]
  % of inhibition: 5.2%
[7]
  % of inhibition: -8%

## Cc1cc(F)c(C(=O)Nc2cccc(-c3nncn3C(C)C)n2)cc1-n1cnc(C2CC2)c1
[8]
  % of control: 75%

## COCC(=O)NC/C=C/c1ccc2ncnc(Nc3ccc(Oc4ccc(C)nc4)c(C)c3)c2c1 [CP-724714]
[9]
  % of control: 76%

## Cc1cnc(Nc2ccc(F)cc2Cl)nc1-c1c[nH]c(C(=O)N[C@H](CO)c2cccc(Cl)c2)c1
[10]
  % of inhibition: 56%
